IC50 and Ki data for 9 compounds are collected here from ChEMBL document CHEMBL1909046, “DrugMatrix in vitro pharmacology data”.

Each structure is given as a SMILES string.

The target in one assay is T1, Progesterone receptor (Bos taurus, UniProt Q690N0).
T1 sequence (Q690N0 whole entry): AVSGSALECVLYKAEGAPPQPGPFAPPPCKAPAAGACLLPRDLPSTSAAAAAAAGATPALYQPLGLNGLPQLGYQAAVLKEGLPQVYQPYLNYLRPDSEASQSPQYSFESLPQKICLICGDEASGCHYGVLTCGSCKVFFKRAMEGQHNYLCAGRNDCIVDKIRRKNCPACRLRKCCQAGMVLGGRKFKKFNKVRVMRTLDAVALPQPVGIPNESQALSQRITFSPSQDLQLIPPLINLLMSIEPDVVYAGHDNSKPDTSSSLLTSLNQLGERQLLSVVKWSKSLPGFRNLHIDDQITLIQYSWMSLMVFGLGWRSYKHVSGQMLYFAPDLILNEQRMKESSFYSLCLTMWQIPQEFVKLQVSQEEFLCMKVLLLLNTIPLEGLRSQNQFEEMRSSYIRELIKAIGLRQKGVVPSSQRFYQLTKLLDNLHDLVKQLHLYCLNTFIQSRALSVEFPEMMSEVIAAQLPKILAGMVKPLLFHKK
The experiment in a line: DRUGMATRIX: Progesterone radioligand binding (ligand: [3H] R-5020). To be noted: Not Active = under 50% inhibition at 10 µM. The class given is tissue-based, Uterus.

For assay [1], the target named is T2, C-X-C chemokine receptor type 1 (Homo sapiens, UniProt P25024). Further: in other assays of this panel Not Active means under 50% inhibition at 10 µM.
T2 sequence (P25024 whole entry): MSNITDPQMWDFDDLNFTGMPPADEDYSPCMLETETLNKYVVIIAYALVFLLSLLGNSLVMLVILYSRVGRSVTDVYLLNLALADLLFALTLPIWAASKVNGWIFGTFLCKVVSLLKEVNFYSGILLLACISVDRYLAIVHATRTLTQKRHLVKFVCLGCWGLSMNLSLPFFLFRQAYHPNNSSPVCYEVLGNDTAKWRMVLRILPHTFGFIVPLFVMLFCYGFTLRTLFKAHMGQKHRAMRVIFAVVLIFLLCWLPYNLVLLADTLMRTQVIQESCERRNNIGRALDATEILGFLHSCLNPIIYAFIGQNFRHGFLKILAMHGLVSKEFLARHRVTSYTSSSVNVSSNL

The target of assay [2] is C-C chemokine receptor type 2 (Homo sapiens, UniProt P41597). The class given is cell membranes, CHO-K1, Membrane. To be noted: cho-k1. Further: in other assays of this panel Not Active means under 50% inhibition at 10 µM.
Sequence of C-C chemokine receptor type 2 (P41597 whole entry): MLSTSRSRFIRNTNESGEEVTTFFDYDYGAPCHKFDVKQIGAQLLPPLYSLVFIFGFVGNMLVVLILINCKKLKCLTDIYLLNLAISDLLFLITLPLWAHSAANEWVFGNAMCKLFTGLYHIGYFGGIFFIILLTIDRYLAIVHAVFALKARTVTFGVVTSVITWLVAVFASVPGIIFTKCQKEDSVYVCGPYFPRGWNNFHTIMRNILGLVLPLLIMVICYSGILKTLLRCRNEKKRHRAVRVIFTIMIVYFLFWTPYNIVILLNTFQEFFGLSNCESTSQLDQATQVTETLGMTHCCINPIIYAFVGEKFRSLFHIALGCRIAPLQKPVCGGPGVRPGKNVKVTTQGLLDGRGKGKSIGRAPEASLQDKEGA
Assay [3] in a line: DRUGMATRIX: GABAA, Chloride Channel, TBOB radioligand binding (ligand: [3H] TBOB). The class given is cell membranes, Rattus norvegicus, Wistar, Cerebral cortex, Membrane. To be noted: Not Active = under 50% inhibition at 10 µM.
For assay [4], the target named is T3, Alpha-1D adrenergic receptor (Homo sapiens, UniProt P25100). Further: in other assays of this panel Not Active means under 50% inhibition at 10 µM.
T3 sequence (P25100 whole entry): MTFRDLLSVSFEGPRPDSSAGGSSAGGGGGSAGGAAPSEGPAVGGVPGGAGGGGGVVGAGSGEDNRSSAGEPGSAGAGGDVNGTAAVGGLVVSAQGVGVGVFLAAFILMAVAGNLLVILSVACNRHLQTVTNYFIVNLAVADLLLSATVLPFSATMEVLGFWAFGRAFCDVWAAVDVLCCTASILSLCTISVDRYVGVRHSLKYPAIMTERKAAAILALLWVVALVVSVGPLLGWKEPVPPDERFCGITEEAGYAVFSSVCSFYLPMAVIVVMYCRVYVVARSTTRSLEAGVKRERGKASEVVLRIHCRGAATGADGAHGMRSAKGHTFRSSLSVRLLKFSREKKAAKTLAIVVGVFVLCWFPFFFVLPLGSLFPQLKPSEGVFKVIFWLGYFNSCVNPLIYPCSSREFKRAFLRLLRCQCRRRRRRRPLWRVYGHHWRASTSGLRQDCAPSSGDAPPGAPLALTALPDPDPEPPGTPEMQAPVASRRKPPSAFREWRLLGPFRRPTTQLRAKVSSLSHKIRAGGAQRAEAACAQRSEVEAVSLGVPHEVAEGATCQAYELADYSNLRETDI
In kind it is cell membranes, HEK293, Membrane.

Assay [5] can be described thus: DRUGMATRIX: Glutamate, Kainate radioligand binding (ligand: [3H] Kainic acid). In kind it is cell membranes, Rattus norvegicus, Wistar, Brain, Membrane. To be noted: Not Active = under 50% inhibition at 10 µM.
The nature of assay [6]: DRUGMATRIX: Glutamate, NMDA, Phencyclidine radioligand binding (ligand: [3H] TCP). In kind it is cell membranes, Rattus norvegicus, Wistar, Cerebral cortex, Membrane. To be noted: Not Active = under 50% inhibition at 10 µM.

Regarding `NC1=NC(=O)C(c2ccccc2)O1` (stereo unspecified) [PEMOLINE], the IC50 entry (at Progesterone receptor; in assay [1]; in assay [2]; in assay [3]; in assay [4] (hek293); in assay [5]) was “Not Active” each time. Also, the IC50 result in assay [6] was “Not Active”. The Ki result in assay [3], in assay [5] and in assay [6] was “Not Active” each time.

As to `Nc1nc2c(ncn2CCC(CO)CO)c(=O)[nH]1` [PENCICLOVIR], the IC50 entry (at Progesterone receptor; in assay [1]; in assay [2]; in assay [3]; in assay [4] (hek293); in assay [5]) was “Not Active” each time. Further, the IC50 entry in assay [6] was “Not Active”. In addition, the Ki entry in assay [3], in assay [5] and in assay [6] was “Not Active” throughout.

Regarding `C=C(C)C1(O)OC(=O)C=C1OC` (stereo unspecified) [PENICILLIC ACID], the IC50 entry (on Progesterone receptor; in assay [1]; in assay [2]; in assay [3]; in assay [4] (hek293); in assay [5]) was “Not Active” throughout. The IC50 entry in assay [6] is on record as “Not Active”. For the same compound, the Ki result in assay [3], in assay [5] and in assay [6] was “Not Active” each time.

Regarding `CC1(C)S[C@@H]2[C@H](NC(=O)Cc3ccccc3)C(=O)N2[C@H]1C(=O)O` [PENICILLIN G], the IC50 result (on Progesterone receptor; in assay [1]; in assay [2]; in assay [3]; in assay [4] (hek293); in assay [5]) was “Not Active” each time. The IC50 result in assay [6] is on record as “Not Active”. Also, the Ki entry in assay [3], in assay [5] and in assay [6] was “Not Active” throughout.

Regarding `C1CCC(C(CC2CCCCN2)C2CCCCC2)CC1` (stereo unspecified) [PERHEXILINE], the IC50 result (at Progesterone receptor; in assay [1]; in assay [2]; in assay [3]; in assay [4] (hek293); in assay [5]) was “Not Active” throughout. In addition, the IC50 entry in assay [6] was “Not Active”. In addition, the Ki result in assay [3], in assay [5] and in assay [6] was “Not Active” in each case.

With `CCOc1ccc(NC(C)=O)cc1` [PHENACETIN], the half-inhibitory concentration (IC50) entry (at Progesterone receptor; in assay [1]; in assay [2]; in assay [3]; in assay [4] (hek293); in assay [5]) was “Not Active” each time. In addition, in assay [6], the IC50 result is “Not Active”. Further, the Ki result in assay [3], in assay [5] and in assay [6] was “Not Active” in each case.

As to `CNNCc1ccc(C(=O)NC(C)C)cc1` [PROCARBAZINE], the IC50 result (at Progesterone receptor; in assay [1]; in assay [2]; in assay [3]; in assay [4] (hek293); in assay [5]) was “Not Active” each time. The IC50 result in assay [6] is “Not Active”. For the same compound, the Ki result in assay [3], in assay [5] and in assay [6] was “Not Active” each time.

For `CN(C)CCCN1c2ccccc2Sc2ccccc21` [PROMAZINE], the IC50 entry is “Not Active” on Progesterone receptor; “Not Active” in assay [1]; “Not Active” in assay [2]; “Not Active” in assay [3]; 13 nM in assay [4] (read-out: IC50); “Not Active” in assay [5]. Moreover, the IC50 result in assay [6] is recorded as “Not Active”. Besides, the Ki result is “Not Active” in assay [3], 6.18 nM in assay [4] (read-out: Ki), “Not Active” in assay [5] and “Not Active” in assay [6].

`CC(O)CO` (stereo unspecified) [PROPYLENE GLYCOL]: the IC50 result (on Progesterone receptor; in assay [1]; in assay [2]; in assay [3]; in assay [4] (hek293); in assay [5]) was “Not Active” throughout. Besides, the IC50 result in assay [6] is listed as “Not Active”. For the same compound, the Ki result in assay [3], in assay [5] and in assay [6] was “Not Active” throughout.

For orientation: IC50 means the concentration at which inhibition is half-maximal. As usually defined, the Ki is the dissociation constant of the complex between target and ligand, obtained from inhibition or displacement.
